“And” between values parts separate entries of the source, which are not always exact repeats. Equal entries are not always repeated. Where two headings read alike, the source gives them in different places.
Assays:
hMC4-R [1] = system: T1, hMC4-R; experiment: cAMP functional assay in HEK-293 cells expressing MC4-R (agonist, neutral antagonist/Schild); type: cell-based, human; conditions: for intrinsic activity at MC4-R: NDP-α-MSH maximal stimulation = 1.0; for functional status at MC4-R: mostly at 1 μM
T1 construct: expressed in transfected cells; host or cells: HEK-293
Description: (§1) General method for EC50 determination in functional activity assay. Functional evaluation of compounds at melanocortin receptors was performed by measuring the accumulation of intracellular cAMP in HEK-293 cells expressing hMC3-R, hMC4-R or hMC5-R, and in B-16 mouse melanoma cells expressing MC1-R. Cells suspended in Earle's Balanced Salt Solution containing 10 mM HEPES (pH 7.5), 5 mM MgCl2, 1 mM glutamine, 0.1% albumin and 0.6 mM 3-isobutyl-1-methyl-xanthine, a phosphodiesterase inhibitor, were plated in 96 well plates at a density of 0.5×10^5 cells per well. Cells were incubated with the test compounds in the presence or absence of α-MSH for 1 hour at 37° C. cAMP levels in the cell lysates were measured using an EIA kit (Amersham). Data analysis and EC50 values were determined using nonlinear regression analysis with Prism Graph-Pad software.
(§2) Functional status. The agonist/antagonist status with respect to MC1-R, MC-3R, MC4-R and MC5-R of certain compounds of the invention was determined.
Assay for agonist. Evaluation of the molecules to elicit a functional response in HEK-293 cells expressing MC4-R was accomplished by measuring the accumulation of intracellular cAMP following treatment. Confluent HEK-293 cells expressing MC4-R were detached by enzyme free cell suspension buffer. Cells were suspended in Earle's Balanced Salt Solution containing 10 mM HEPES (pH 7.5), 1 mM MgCl2, 1 mM glutamine, 0.5% albumin and 0.3 mM 3-isobutyl-1-methyl-xanthine (IBMX), a phosphodiesterase inhibitor. The cells were plated in 96 well plates at a density of 0.5×10^5 cells per well and pre-incubated for 30 minutes. The cells were then challenged with the test compounds dissolved in DMSO at a concentration range of 0.05-5000 nM in a total assay volume of 200 μL for 1 hour at 37° C. The concentration of DMSO was always held at 1% in the assay mixture. NDP-α-MSH was used as the reference agonist. At the end of the incubation period the cells were disrupted by the addition of 50 μL of lysis buffer from a cAMP EIA kit (Amersham). Complete rupture of the cells was obtained by pipetting the cells multiple times. cAMP levels in the cell lysates were measured after appropriate dilution using the EIA kit (Amersham) method. Data analysis and EC50 values were determined by using nonlinear regression analysis with Prism Graph-Pad software. […] FIG. 1 illustrates typical results, showing the stimulation of cAMP using the compound of Example 11 in HEK-293/MC4-R cells with comparison to NDP-α-MSH.
Assay for Neutral Antagonist. Compounds with a high affinity for binding to MC4-R membranes but with less potency in terms of cAMP accumulation (EC50>1000 nM) and low response ratio (<0.1) were analyzed for their ability to antagonize the stimulatory effect of the agonist NDP-α-MSH. These studies were carried out in HEK-293 cells expressing MC4-R. Cells were incubated with the compounds in the presence of the agonist NDP-α-MSH and the extent of antagonism was measured by the decrease in intracellular cAMP concentrations. Screening the compounds for antagonist activity was performed at a single concentration of NDP-α-MSH (1.0 nM) over a compound concentration range of 0.5-5000 nM.
Experimental details were similar to the analysis for agonistic activity described above. Briefly, cells were pre-incubated for 30 minutes with the test compounds at concentrations between 0.5 nM and 5000 nM. The cells were then stimulated with NDP-α-MSH at a concentration of 1 nM for 1 hour. For Schild's analysis, the interactions were studied using at least 3 concentrations of the compounds, separated by a log unit, over a full range of the agonist (0.005-5000 nM). cAMP levels were measured in the cell lysates after appropriate dilution. Nonlinear regression analysis with Prism Graph-Pad software was used for Schild analysis and to obtain EC50 values. pA2 values were derived from the Schild plot of the data.

hMC4-R [2] = target: T1, hMC4-R; type: binding, human; conditions: for Inhibition at 1 μM (AgRP) MC4-R: 1 μM compound
Description: Competitive binding assay using [I^125]-AgRP (83-132). Competitive binding studies using [I^125]-AgRP (83-132) were carried out on membranes isolated from cells expressing hMC4-R. The assay was performed in 96 well GF/B Millipore multiscreen filtration plates (MAFB NOB10) pre-coated with 0.5% bovine serum albumin (Fraction V). The assay mixture contained 25 mM HEPES buffer (pH 7.5) with 100 mM NaCl, 2 mM CaCl2, 2 mM MgCl2, 0.3 mM 1,10-phenanthroline, 0.5% bovine serum albumin, cell membranes, radioligand [I^125]-AgRP (83-132) (NEN), and increasing concentrations of compounds in a total volume of 200 μL. Binding was measured at radioligand concentrations of 0.2 nM. After incubating for 1 hour at 37° C., the reaction mixture was filtered and washed with an assay buffer containing 500 mM NaCl. The dried discs were punched out from the plate and counted on a gamma counter. Care was taken to limit the specific binding of the ligand to an amount not exceeding 10% of the counts added to the reaction mixture. Data were analyzed using the Prism Graph-Pad curve fitting software.

MC1-R [3] = system: T2, MC1-R; experiment: cAMP functional assay, B-16 mouse melanoma cells expressing MC1-R; type: cell-based; conditions: cAMP assay at 1 μM
T2 construct: from B-16 mouse melanoma cells (containing MC1-R); endogenous in cells; host or cells: B-16 mouse melanoma cells
Description: as §1, §2

MC1-R [4] = target: T3, MC1-R; experiment: Competitive inhibition assay using [I125]-NDP-α-MSH, MC1-R membranes; type: binding, mouse; conditions: for Inhibition at 1 μM (NDP-α-MSH) MC1-R: 1 μM compound
T3 construct: other: 1 μM compound
Description: (§3) Competitive inhibition assay using [1125]-NDP-α-MSH. A competitive inhibition binding assay was conducted using membranes prepared from HEK-293 cells transfected to express hMC3-R, hMC4-R or hMC5-R, and from B-16 mouse melanoma cells (containing MC1-R) using 0.2 to 0.4 nM [I^125]-NDP-α-MSH (New England Nuclear) in 50 mM HEPES buffer containing 1 mM MgCl2, 2 mM CaCl2, and 5 mM KCl, at pH 7.2. In certain experiments, HEK-293 cells transfected to express hMC1-R were also employed. The assay tube also contained a chosen concentration of the test compound of this invention, typically a 1 μM concentration, for determining inhibition of the binding of [^1125]-NDP-α-MSH to its receptor. Non-specific binding was measured by inhibition of binding of [I^125]-NDP-α-MSH in the assay with the presence of 1 μM α-MSH.
(§4) The assay mixture was incubated for 90 minutes at room temperature, then filtered and the membranes washed three times with ice cold buffer. The filter was dried and counted in a gamma counter for remaining radioactivity bound to the membranes. 100% specific binding was defined as the difference in radioactivity (cpm) bound to cell membranes in the absence and presence of 1 μM α-MSH. The cpm obtained in presence of test compounds were normalized with respect to 100% specific binding to determine the percent inhibition of [125]-NDP-α-MSH binding. Each assay was conducted in triplicate and the actual mean values are described, with results less than 0% reported as 0%.

hMC5-R [5] = system: T4, hMC5-R; experiment: cAMP functional assay, HEK-293 cells expressing hMC5-R; type: cell-based, human; conditions: cAMP assay at 1 μM
T4 construct: expressed in transfected cells; host or cells: HEK-293
Description: as §1, §2

hMC4-R [6] = system: T1, hMC4-R; experiment: Competitive inhibition assay using [I125]-NDP-α-MSH, hMC4-R membranes; type: binding, human; conditions: for Inhibition at 1 μM (NDP-α-MSH) MC4-R: 1 μM compound; for attenuation of binding of α-MSH and AgRP to MC4-R: both ligands (NDP-α-MSH and AgRP), summary
Description: as §3, §4

hMC3-R [7] = target: T5, hMC3-R; experiment: Competitive inhibition assay using [I125]-NDP-α-MSH, hMC3-R membranes; type: binding, human; conditions: for Ki: read-out: Ki (nM) (NDP-α-MSH) MC3-R
T5 construct: expressed in transfected cells; host or cells: HEK-293
Description: as §3, §4

hMC5-R [8] = target: T4, hMC5-R; experiment: Competitive inhibition assay using [I125]-NDP-α-MSH, hMC5-R membranes; type: binding, human; conditions: for Ki: read-out: Ki (nM) (NDP-α-MSH) MC5-R
Description: as §3, §4

hMC3-R [9] = system: T5, hMC3-R; experiment: cAMP functional assay, HEK-293 cells expressing hMC3-R; type: cell-based, human; conditions: cAMP assay at 1 μM
Description: as §1, §2

[10] = cAMP assay, read-out: EC50 (nM) at MC4-R
[11] = MC4-R membranes, Table 1, read-out: Ki (nM) I125-AgRP
[12] = MC4-R membranes, Table 1, read-out: Ki (nM) I125-NPD-α-MSH
[13] = read-out: Ki (nM) (NDP-α-MSH) MC4-R

Molecule	functional status (pAg, Ag, Antag, Inactive) (hMC4-R [1]; MC4-R, Table 1)	EC50 (hMC4-R [1]; MC4-R, Table 1, read-out: EC50)	intrinsic activity at MC4-R (hMC4-R [1])	EC50 (hMC4-R [1]; [10])	Ki (hMC4-R [2]; [11])	Ki (hMC4-R [2]; read-out: Ki (nM) (AgRP) MC4-R)	functional status at MC1-R (MC1-R [3])	Ki (MC1-R [4])	Inhibition at 1 μM (NDP-α-MSH) MC1-R (MC1-R [4])	functional status at MC5-R (hMC5-R [5])	Inhibition at 1 μM (NDP-α-MSH) MC4-R (hMC4-R [6])	Ki (hMC4-R [6]; [12])	attenuation of binding of α-MSH and AgRP to MC4-R (hMC4-R [6])	Ki (hMC4-R [6]; [13])	Ki (hMC3-R [7])	Ki (hMC5-R [8])	functional status at MC4-R (hMC4-R [1]; cAMP assay)	Inhibition at 1 μM (AgRP) MC4-R (hMC4-R [2])	functional status at MC3-R (hMC3-R [9])	other results
N=C(N)NCCC[C@H]1C(=O)N(CCc2c[nH]c3ccccc23)CCN1C(=O)[C@H](N)Cc1ccc(Cl)cc1Cl [Example 2, N-(3-{(S)-1-[(R)-2-Amino-3-(2,4-dichloro-phenyl)-propionyl]-4-[2-(1H-indol-3-yl)-ethyl]-3-oxo-piperazin-2-yl}-propyl)-guanidine]	pAg (“pAg” means partial agonist)	604 nM	0.3	604 nM	38 nM	38 nM	partial agonist (intrinsic activity between 0.1 (10%) and 0.7 (70%) is classified as a partial agonist)	1410 nM	7%	partial agonist (intrinsic activity between 0.1 (10%) and 0.7 (70%) is classified as a partial agonist)	96%	15 nM	attenuate the binding of both α-MSH and AgRP to MC4-R	15 nM	533 nM	1580 nM	–	–	–	–
CC(C)C[C@H]1CN(C(=O)[C@H](N)Cc2ccc(Cl)cc2Cl)[C@@H](CCCNC(=N)N)CN1CCc1ccc2ccccc2c1 [Example 3, N-{3-[1-[2(R)-Amino-3-(2,4-dichloro-phenyl)-propionyl]-5(S)-isobutyl-4-(2-naphthalen-2-yl-ethyl)-piperazin-2(S)-yl]-propyl}-guanidine]	Inactive	–	no intrinsic activity	–	39 nM	39 nM	partial agonist (intrinsic activity between 0.1 (10%) and 0.7 (70%) is classified as a partial agonist)	5900 nM	4%	partial agonist (intrinsic activity between 0.1 (10%) and 0.7 (70%) is classified as a partial agonist)	95%	48 nM	–	48 nM	495 nM	698 nM	inactive	91%	–	Inhibition at 1 μM (NDP-α-MSH) MC3-R (hMC3-R [7]; 1 μM compound): 16%; Inhibition at 1 μM (NDP-α-MSH) MC5-R (hMC5-R [8]; 1 μM compound): 28%
Cc1ccc(CCN2C[C@H](CCCNC(=N)N)N(C(=O)[C@H](N)Cc3ccc4ccccc4c3)C[C@H]2C)cc1 [Example 5, N-{3-[1-(2(R)-Amino-3-naphthalen-2-yl-propionyl)-5(R)-methyl-4-(2-p-tolyl-ethyl)-piperazin-2(S)-yl]-propyl}-guanidine]	pAg (“pAg” means partial agonist)	370 nM	0.6	370 nM	42 nM	42 nM	partial agonist (intrinsic activity between 0.1 (10%) and 0.7 (70%) is classified as a partial agonist)	135 nM	32%	partial agonist (intrinsic activity between 0.1 (10%) and 0.7 (70%) is classified as a partial agonist)	–	29 nM	attenuate the binding of both α-MSH and AgRP to MC4-R	29 nM	164 nM	448 nM	–	93%	no intrinsic activity (intrinsic activity below 0.1 (10%) is classified as inactive or having no intrinsic activity)	–
C[C@@H]1CN(C(=O)[C@H](N)Cc2ccc(Cl)cc2Cl)[C@@H](CCCNC(=N)N)CN1CCc1ccc2ccccc2c1 [Example 12, N-{3-[1-[2(R)-Amino-3-(2,4-dichloro-phenyl)-propionyl]-5(R)-methyl-4-(2-naphthalen-2-yl-ethyl)-piperazin-2(S)-yl]-propyl}-guanidine]	Antag (“Antag” means antagonist)	–	–	–	–	–	inactive	1130 nM	20%	inactive	99%	–	–	–	–	–	antagonist	–	inactive	pA2 value at MC4-R (hMC4-R [1]; Schild plot vs NDP-α-MSH): 7.52 and 7.7
NH2—(CH2)6—C(═O)-Ser(Bzl)-D-Phe(4-Cl)-Arg-Trp-Asp-NH2 [Example 14]	pAg (“pAg” means partial agonist)	568 nM	0.5	568 nM	–	–	inactive	760 nM	35%	inactive	–	–	–	–	180 nM	–	partial agonist (intrinsic activity between 0.1 (10%) and 0.7 (70%) is classified as a partial agonist)	–	partial agonist (intrinsic activity between 0.1 (10%) and 0.7 (70%) is classified as a partial agonist)	–
